Measurements published in patent US6506801B1, “Methods of treating anosmia and repopulating olfactory nerves with retinoids” (Monell Chemical Senses Center, priority 2000, dated 2003).

Columns and labels:
complicated anosmia = conditions: Duncan et al. 1962; cited from earlier work
[1] = test system: olfactory nerve recovery after bilateral olfactory nerve transection; assay: Buried food task after bilateral olfactory nerve transection (BNX)

Question: With Vitamin A as the molecule, how does the “usefulness in treating anosmia associated with skull injuries and fractures with sheering of olfactory nerves” value (complicated anosmia) read?
Answer: not to be useful

Question: Which results are given for `CC1=C(/C=C/C(C)=C/C=C/C(C)=C/C(=O)O)C(C)(C)CCC1` [RA, all-trans retinoic acid]?
Answer: initial rate of recovery versus BNX-oil ([1]; BNX mice, FIG. 1, food-finding times to post-surgical day 14): faster; treatment effect on mean food finding times across the recovery period ([1]; BNX mice, post-surgical days 3-14, two-factor repeated measures ANOVA, F(1,15)=5.85, p<0.05, treatment X day interaction p<0.005): significant treatment effect; mean post-surgical day on which animals reached criterion for initial recovery (first day of three consecutive days of <180 seconds food-finding time) ([1]; BNX mice, single oral 75 mg/kg atRA in sesame oil one day after surgery, n=9, BNX-oil 10.75±1.28, p<0.05): 7.56±0.67 post-surgical day; post-surgical days between which animals reached criterion for initial recovery ([1]; BNX mice, single oral 75 mg/kg atRA in sesame oil, n=9): 4-11 post-surgical days; recovery time needed to return to pre-surgical level of performance (≦30 seconds) ([1]; BNX mice, single oral 75 mg/kg atRA, no difference from BNX-oil (9.25 days), p=0.761): 9.8 days; food-finding performance of sham-operated animals after surgery ([1]; sham mice, single oral 75 mg/kg atRA, n=4, FIG. 1): performed at pre-surgical levels
